The subject of data set [1] is MeV-EGFP. The note with it: viral entry inhibition assay; for IC50 / IC90: Vero/hSLAM cells, MeV-EGFP; for IC50: triplicate; for IC90: calculated from Hill coefficient and IC50. The method, then:
(§1) To evaluate how modifying the C-terminus of FIP affects the interactions of FIP and MeV-F, we synthesized three FIP derivatives, named FIP-G3A, FIP-G3a, and FIP-NH2 (Fig. 2a). The inhibitory activities of the derivatives were evaluated using a virus-mediated cell-to-cell fusion assay (Fig. 2b). In this assay, Vero cells stably expressing hSLAM (Vero/hSLAM cells)[21] were infected with EGFP-recombinant MeV (MeV-EGFP) for 1 h at 37 °C, then the medium containing MeV-EGFP was replaced with a medium containing each FIP derivative and incubated at 37 °C for 48 h. The inhibitory activity was assessed based on the size and area of the syncytia observed by fluorescence microscopy, albeit qualitatively. […] To more quantitatively compare the inhibitory activity of FIP and FIP-NH2 against MeV infection in cells, a viral entry inhibition assay was conducted using a serially diluted compound, and the IC50 and IC90 values of the compounds were determined. In this assay, Vero/hSLAM cells were infected with inhibitor-treated MeV-EGFP at 37 °C for 1 h. Subsequently, the supernatant was replaced with a medium containing 100 μM of FIP, and the cells were further incubated at 37 °C for 48 h. Finally, the number of virus-infected cells was quantified using fluorescence microscopy. […]
pfu/well and incubated with peptide solution in 10% FBS/DMEM containing 0–1% DMSO for 30 min at room temperature. Vero/hSLAM cells were then infected with the inhibitor-treated MeV-EGFP for 1 h at 37 °C. The supernatant, including the virus, was replaced with 100 µM FIP (Peptide Institute, Inc. cat#4092) solution in 0–1% DMSO in 10% FBS/DMEM, and EGFP-positive cells were counted under fluorescence microscopy (BZ-X710, keyence) after incubation for 48 h at 37 ℃. The entry inhibition rate was calculated as 100 − (the number of sample EGFP positive cells − the number of cell-only control EGFP positive cells) / (the number of viral control EGFP positive cells − the number of cell-only control EGFP positive cells) × 100. This experiment was performed in triplicate. IC50 values were calculated using parameters determined by fitting the plot to a four-parameter logistic regression model (Hill equation) implemented in Python (Matplotlib and SciPy libraries). The equation used was: y = d + (a – d) / (1 + (x / c)b). x, y, a, b, c, and d represent peptide concentration, fraction of infected cells, maximum response, Hill coefficient (degree of cooperativity), IC50, and minimum response, respectively. Curve fitting was performed using the curve_fit function from the SciPy library, and IC90 values were calculated using the derived Hill coefficient and IC50 values. […]
(BZ-X710, keyence) after incubation for 48 h at 37 ℃. […]

Data set [2] has as its target T1, MeV-F wild type (Measles virus, UniProt Q786F3).
T1 construct: wild-type full-length MeV-H (pCA7-ICH) and MeV-F; expressed in transfected cells; host or cells: Vero/hSLAM cells
The format is cell-based. The note with it: qualitative; for inhibition of syncytia formation: 24 h. The text has this:
To obtain new interactions, we designed and synthesized FIP-NH2 derivatives in which Gly residue is replaced with a D-amino acid residue shown in Fig. 3a (FIP-G3x-NH2, x = d, e, h, k, n, q, r, s, t). To avoid proteolytic degradation of the derivatized peptides, D-amino acid residues were adopted. Because FIP consists of hydrophobic structures, polar residues were recruited for replacing the Gly residue to avoid poor aqueous solubility of the resulting derivatives. The inhibitory activities of the synthesized derivatives were evaluated by cell-to-cell fusion assay. In this assay, each FIP derivative was added to the medium of Vero/hSLAM cells transiently expressing MeV-F, MeV-H, and EGFP, and the cells were incubated at 37 °C for 24 h. The cells were observed under a fluorescence microscope, and inhibition of the syncytia formation was qualitatively assessed based on the size and area of emitting fluorescence (Fig. 3b). We also synthesized and evaluated the reverse sequence of FIP, FIP-rev (Z-Gly-Phe-D-Phe-OH), and the enantiomer of FIP, FIP-enan (Z-Phe-D-Phe-Gly-OH), as negative controls.
Fig. 3 Chemical structures and cell-to-cell fusion assay of FIP and its derivatives using Vero/hSLAM cells expressing MeV-F and MeV-H. a) Chemical structures of FIP and its derivatives. b) A schematic illustration of cell-to-cell fusion assay. […] All the experiments were conducted in triplicate. […]
(BZ-X710, keyence) after incubation for 48 h at 37 ℃.
Cell-to-cell fusion assay using wild-type MeV-F plasmid. Vero/hSLAM cells in 96-well plate were transfected with 0.01 µg pCA7-ICH, 0.0375 µg pCA7-ICF and 0.3 µg pCA7 plasmid encoding EGFP (pCA7-EGFP) using VeroFect (0.695 µL, OZ Biosciences) in 10% FBS/DMEM when the confluency of the cells was about 90%. FIP or an FIP derivative in DMSO was added in each sample to 100 or 0.5 µM as the final […]
concentration. […]

In data set [3] the target is T2, E471S mutant of MeV-F (Measles virus, UniProt Q786F3, E471S).
T2 construct: Full-length E471S MeV-F was amplified through PCR and site-directed mutagenesis; expressed in transfected cells; host or cells: Vero cells per the methods
Description: Cell-to-cell fusion assay using MeV-F E471S mutant. In kind it is cell-based. The note with it: Fig. 4e, qualitative. From the text: To identify the plausible new interactions formed between FIP-G3r-NH2 and MeV-F, we conducted docking simulations using Autodock Vina.[22,23] First, we conducted a docking simulation of FIP and MeV-F to assess the reliability of the docking simulations (Fig. 4a). […] We then conducted a docking simulation of FIP-G3r-NH2 and MeV-F (Fig. 4c). We found a docking pose in which the binding conformation of the main chain and the aromatic ring of FIP-G3r-NH2 is similar to that of FIP (Fig. 4d). […] It should be noted that the MeV-F E471S mutant protein was synthetically produced for this experiment, and, to our knowledge, this mutant has not been reported as a natural variant. […]
pfu/well and incubated with peptide solution in 10% FBS/DMEM containing 0–1% DMSO for 30 min at room temperature. […] The supernatant, including the virus, was replaced with 100 µM FIP (Peptide Institute, Inc. cat#4092) solution in 0–1% DMSO in 10% FBS/DMEM, and EGFP-positive cells were counted under fluorescence microscopy (BZ-X710, keyence) after incubation for 48 h at 37 ℃. The entry inhibition rate was calculated as 100 − (the number of sample EGFP positive cells − the number of cell-only control EGFP positive cells) / (the number of viral control EGFP positive cells − the number of cell-only control EGFP positive cells) × 100. […]

The target in data set [4] is MeV-F (prefusion-stabilized ectodomain trimer). Description: Surface plasmon resonance (SPR) binding to MeV-F. On the set-up: species or system Measles virus. Conditions: peptides (EG-K derivatives) immobilized on sensor chip, MeV-F as analyte, 25 °C.
A short description of data set [5]: physchem. The format is physicochemical.
For data set [6] the following is noted: 1 μM inhibitor in serum.
Data set [7] is described as follows: in vitro. The note with it: bovine.
Data set [8] has as its system MeV-EGFP. Description: Virus-mediated cell-to-cell fusion assay (syncytia in Vero/hSLAM cells infected with MeV-EGFP). The format is cell-based, Measles virus. Conditions: 48 h, qualitative. The method, then:
as §1
Virus-mediated cell-to-cell fusion assay. Vero/hSLAM cells were cultured in 96 well plates (Thermo scientific cat#167008) overnight at 37 ℃. Vero/hSLAM cells were then infected with MeV-EGFP (200 pfu / well) for 1 h. The supernatant, including the virus, was replaced with 10% FBS/DMEM with or without 1, 10, 100 µM FIP or a FIP derivative. The images of cell-to-cell fusion were captured by fluorescence microscopy (BZ-X710, keyence) after incubation for 48 h at 37 ℃.

For data set [9], the system named is MeV. More on the design: method as in PMID 7414950. The note with it: plaque assay for MeV; cited from earlier work.

≈ marks a conversion by molar mass, not a printed value. Entries after “also recorded” stand apart in the source; their conditions may differ. Like-named read-outs stand apart in the source and are kept apart here. Where a SMILES comes first, the peptide text is derived from it. [ ]: non-standard residue; d: D form. The star is where a group is joined. Cbz = O=C(OCc1ccccc1)*; AEEA = NCCOCCOCC(=O)O

In general, IC50 refers to the point on the concentration scale where inhibition reaches its midpoint. Usually IC90 stands for the point of the concentration-response curve where the effect stands at 90%. The Kd is a measure of binding affinity in units of concentration. What is called solubility is how much of the substance goes into solution per volume. A high value points to a readily soluble substance. For orientation: half-life means the time in which the quantity being followed falls by half. For `N=C(N)NCCC[C@@H](NC(=O)[C@H](Cc1ccccc1)NC(=O)[C@@H](Cc1ccccc1)NC(=O)OCc1ccccc1)C(N)=O` [FIP-G3r-NH2] (Cbz-[dF]-Phe-[dR]-NH2), in data set [1], half-maximal inhibition (IC50) required 210 nM and the IC90 was 1800 nM. Moreover, in data set [1] (relative to FIP), the “fold higher inhibitory activity than FIP (IC50)” value is given as “about six-fold”. In addition, the “inhibition of syncytia formation” value in data set [2] (0.5 μM) is “higher inhibitory activity than FIP-NH2; also recorded: completely inhibited the syncytia formation”. Moreover, in [2] (MeV-F wild type (WT), Fig. 4e), the “membrane fusion inhibitory activity” value is on record as “higher membrane fusion inhibitory activity than FIP”. Moreover, in data set [3], the “membrane fusion inhibitory activity” value is listed as “dropped to the same level as FIP”. In addition, the Kd in [4] came out at 6.6 nM. For the same molecule, the concentration in solution in data set [5] (solubility) was 83 ± 4 µM (≈ 49.9 µg/mL). Moreover, the “proteolytic stability in serum” value in [6] is listed as “high proteolytic stability”. The half-life at 1 μM in data set [7] is over 24 h.
Take `O=C(O)CNC(=O)[C@H](Cc1ccccc1)NC(=O)[C@@H](Cc1ccccc1)NC(=O)OCc1ccccc1` [FIP, Z-D-Phe-Phe-Gly, reference compound] (Cbz-[dF]-Phe-Gly-OH): the results for the IC50 in [1] and in data set [9] were 1300 nM and 200 nM, respectively. Also, the IC90 in data set [1] is 12000 nM. Moreover, the “inhibition of syncytia formation” value was “inhibited fusion only weakly” in data set [8] (1 μM); “strongly inhibited syncytia formation” in data set [8] (10 μM); “strongly inhibited syncytia formation” in data set [8] (100 μM); “weakly inhibited syncytia formation” in data set [2] (0.5 μM); “strongly inhibited syncytia formation” in data set [2] (100 μM). Besides, the concentration in solution in data set [5] (solubility) came to 98 ± 1 µM (≈ 49.3 µg/mL). Besides, the “proteolytic stability in serum” value in data set [6] was “high proteolytic stability”. This molecule showed a half-life at 1 μM in data set [7] of over 24 h.
Consider `N=C(N)NCCC[C@@H](NC(=O)[C@H](Cc1ccccc1)NC(=O)[C@@H](Cc1ccccc1)NC(=O)OCc1ccccc1)C(=O)NCCOCCOCC(=O)N[C@@H](CCCCN)C(N)=O` [FIP-G3r-NH-EG-K] (Cbz-[dF]F[dR][AEEA]K-NH2), for which the Kd in data set [4] was 6.6 nM.
For Cbz-Phe-[dF]-Gly-OH [FIP-enan], the “inhibition of syncytia formation” value in data set [2] (100 μM) is recorded as “lower inhibitory activity than FIP”.
In [4], `NCCCC[C@H](NC(=O)COCCOCCNC(=O)CNC(=O)[C@H](Cc1ccccc1)NC(=O)[C@@H](Cc1ccccc1)NC(=O)OCc1ccccc1)C(N)=O` [FIP-NH-EG-K] (Cbz-[dF]FG[AEEA]K-NH2) returned a Kd of 81 nM.
Consider Cbz-Gly-Phe-[dF]-OH [FIP-rev], for which the “inhibition of syncytia formation” value in data set [2] (100 μM) is on record as “lower inhibitory activity than FIP”.
Take `NC(=O)CNC(=O)[C@H](Cc1ccccc1)NC(=O)[C@@H](Cc1ccccc1)NC(=O)OCc1ccccc1` [FIP-NH2] (Cbz-[dF]-Phe-Gly-NH2): in data set [1], the IC50 worked out at 510 nM and the IC90 is 3600 nM. Further, in [8] (1 μM), the “inhibition of syncytia formation” value is reported as “a little higher inhibitory activity than FIP”. For the same molecule, the “inhibitory activity against MeV-induced cell fusion compared with FIP” value in [8] (100, 10 or 1 μM) is recorded as “did not decrease the inhibitory activity”. The Kd in [4] was determined as 81 nM.
